Reference: paper PMC4163640 (2014)

Experiments:
Assay in all cases: fluorescence titration
[1] = system: G4T4G4 (DNA, G4) GGGGTTTTGGGG; settings: K+ 5 mM, Li+ 95 mM; 10 mM lithium cacodylate pH 7.2 (5K), 25 °C; 1:1 model
[2] = system: G4 (DNA, G4) TTTTGGGGTTTT; settings: K+ 10 mM, Mg2+ 1 mM; 50 mM Tris-borate pH 8.3 (TB), 25 °C; 1:1 model
[3] = system: G8 (DNA, G4) TTTTGGGGGGGGTTTT; settings: K+ 10 mM, Mg2+ 1 mM; 50 mM Tris-borate pH 8.3 (TB), 25 °C; 1:1 model

Structure (SMILES): CCc1c(C)c2cc3nc(cc4nc(cc5c(CC)c(C)c(cc1[nH]2)n5C)C(C)=C4CCC(=O)O)C(CCC(=O)O)=C3C
- Ka [1]: (1.26 ± 0.07) × 10^7 L·mol^-1
- Ka [2]: (1.4 ± 0.2) × 10^6 L·mol^-1
- Ka [3]: (1.7 ± 0.2) × 10^6 L·mol^-1
